According to the supplement of paper PMC10307832:

Columns and labels:
Experiment in all cases: relative viability (nuclei count vs DMSO), 5 days (fraction); higher = more cells survive
[1] = compound: C1=CC2=C(C=C(C(=C2N=C1)O)N=NC3=CC4=C(C=C3)C=C(C=C4)S(=O)(=O)O)S(=O)(=O)O + COc1cccc2cc(-c3nc([C@H]4CC[C@H](C(=O)O)CC4)n4ncnc(N)c34)[nH]c12 [OSI-027] (partner 0.5 µM)
Method in brief: (§1)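 Lung cancer cell lines were pin-tool dosed in 1536-well plates on the day after seeding, with either a lone drug or a fixed anchor-drug dose plus five library-drug doses (not always all listed) in √10 steps. Nuclei were counted on 4× images after 5 days. Relative viability is the ratio of treated-well to vehicle-well nuclei counts, with each value a median of duplicate plates.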

[2] = compound: C1=CC2=C(C=C(C(=C2N=C1)O)N=NC3=CC4=C(C=C3)C=C(C=C4)S(=O)(=O)O)S(=O)(=O)O + O=C(c1cc(Cc2n[nH]c(=O)c3ccccc23)ccc1F)N1CCN(C(=O)C2CC2)CC1 [Olaparib] (partner 8 µM)
Method in brief: as §1

[3] = compound: C1=CC2=C(C=C(C(=C2N=C1)O)N=NC3=CC4=C(C=C3)C=C(C=C4)S(=O)(=O)O)S(=O)(=O)O + N=C(N)NC(=N)NCCc1ccccc1 [Phenformin] (partner 250 µM)
Method in brief: as §1

AT-7519 + Luminespib = compound: O=C(NC1CCNCC1)c1n[nH]cc1NC(=O)c1c(Cl)cccc1Cl [AT-7519] + CCNC(=O)c1noc(-c2cc(C(C)C)c(O)cc2O)c1-c1ccc(CN2CCOCC2)cc1 [Luminespib] (partner 0.01 µM)
Method in brief: as §1

UMC-11 gave a relative viability ([1]; first compound 0.08 µM) of 0.492, a relative viability ([1]; first compound 0.253 µM) of 0.435 and a relative viability ([1]; first compound 0.8 µM) of 0.458. It also gave a relative viability ([1]; first compound 2.53 µM) of 0.47, a relative viability ([1]; first compound 8 µM) of 0.485 and a relative viability ([2]; first compound 0.08 µM) of 0.36. The relative viability ([2]; first compound 0.253 µM) was 0.381, the relative viability ([2]; first compound 0.8 µM) was 0.34 and the relative viability ([2]; first compound 2.53 µM) was 0.376. The relative viability ([2]; first compound 8 µM) was 0.317, the relative viability ([3]; first compound 0.08 µM) was 0.326 and the relative viability ([3]; first compound 0.253 µM) was 0.31. For the same cell line, the relative viability ([3]; first compound 0.8 µM) was 0.336, the relative viability ([3]; first compound 2.53 µM) was 0.345 and the relative viability ([3]; first compound 8 µM) was 0.338. It also gave a relative viability (AT-7519 + Luminespib; first compound 0.01 µM) of 1.06, a relative viability (AT-7519 + Luminespib; first compound 0.03162 µM) of 0.98 and a relative viability (AT-7519 + Luminespib; first compound 0.3162 µM) of 0.716. The relative viability (AT-7519 + Luminespib; first compound 1 µM) was 0.394.
